The test system of series [1] is eIF2.GTP.Met-tRNAi ternary complex. Briefly: Ternary complex assay: dual luciferase F-luc/R-luc ratio in KLN-tTA/pBISA-DL(ATF-4) cells (HTS screen, 96-well hit confirmation, dose response). The format is cell-based, mouse. To be noted: for fold induction at 3 µM / fold induction at 10 µM: Mus musculus; for fold induction at 3 µM / fold induction at 10 µM / Ternary Complex Activity: Maximum effect (Emax, fold over control) / Cmax: cell line not stated; for Cmax: read-out: Ternary Complex Activity: Maximum effective dose Cmax; for Effect on firefly/renilla luciferase ratio: KLN-tTA/pBISA-DL(ATF-4) cells; for Activity 2.5 uM: compound at 2.5 uM; for Activity 2.5 uM / Activity 10 uM: confirmed hits (Table 5); for Activity 10 uM: compound at 10 uM. From the text: For assay development, a bi-directional plasmid was designed in which a common promoter/enhancer complex drives the transcription of firefly luciferase (F-luc) ORF fused to the 5′ untranslated region (UTR) of ATF-4, and of the renilla luciferase (R-luc) ORF fused to a 90-nucleotide 5′ UTR derived from the plasmid (FIG. 6A). Because the tetracycline-regulated transactivator ((tTA), required for driving transcription from this vector) is not normally expressed in the mammalian cells, stable KLN cancer cells were constructed that expressed tTA (KLN-tTA).
The KLN-tTA colonies that drove expression of reporter genes from pBISA-DL plasmid were selected by transient transfection and dual luciferase assay. One of these KLN-tTA cell lines was transfected with the pBISA-DL^(ATF-4) expression vector, stable colonies were selected by dual luciferase assay and expanded. To determine if reduced availability of the eIF2.GTP.Met-tRNAi ternary complex increased the translation of firefly luciferase and decreased translation of renilla luciferase, selected KLN-tTA/pBISA-DL^(ATF-4) colonies were treated with thapsigargin (TG) or tunicamycin (TU), two agents known to cause phosphorylation of eIF2α.
This assay was then adapted for high throughput screening in 96 and 384 well plates. This was done by evaluating the cell density, length of exposure to compounds, DMSO tolerance and optimum firefly and renilla substrate. We then challenged these cells with thapsigargin or DMSO. […] Cell-based assays usually have higher variation than homogeneous in vitro assays due to position effect in the plate, and other variables associated with handling of cells and the plates.
Screening was conducted in 384 well white opaque plates (Nalge Nunc), 100 μl volume RPMI+10% fetal bovine serum. Cells were plated at the sub-confluent density of 10,000 cells/well, and allowed to attach for a period of 16-18 hours at 37° C., 5% CO2. Compounds were added as 1 μl of a 1 mM DMSO stock solution for a final screening concentration of […] using low-volume tips for transfer (Molecular Bioproducts). Cells were then incubated in the presence of compound for an additional sixteen hours, again at 37° C., 5% CO2. Following incubation 70 μl of the culture medium was removed from each well to allow for reagent addition and plates were allowed to equilibrate to room temperature for thirty minutes. Firefly luciferase reporter activity was then read by the addition of thirty microliters of Dual Glo Luciferase reagent (Promega), followed by one hour incubation at room temperature to allow for adequate signal buildup. Luminescence counting was conducted on a Microbeta Trilux using a 1 second read time. Renilla luciferase reporter activity was measured following addition of 30 μl Stop and Glo Luciferase reagent (Promega) and incubation identical to the one carried out for the firefly luciferase one.
Compound scores were interpreted as firefly luciferase activity divided by renilla luciferase activity, normalized to the plate's DMSO control. […] All data analysis was conducted using the BioAssay HTS software package (CambridgeSoft).
102,709 compounds in the NCI Open Chemical Repository were then screened using this HTS assay. […] Initial hits were confirmed by repeating the same dual luciferase assay in 96 well plates. Briefly, 20,000 cells/well were plated in triplicate for each concentration (10, 5 and 2.5 μM) of the compounds.

The subject of series [2] is CRL-2351 human breast cancer cells. The series can be described thus: Cell proliferation SRB assay, CRL-2351. The format is cell-based. The conditions noted are these: CRL-2351 human breast cancer cells; read-out: Growth Inhibition IC50 (μm). On the procedure:
Reduced availability of the ternary complex causes inhibition of translation initiation and thereby of cell proliferation. […] The effects of N,N′-diarylureas on the proliferation KLN mouse squamous cell carcinoma, CRL-2351 human breast, CRL-2813 human melanoma, A549 human lung and PC-3 human prostate cancer cell lines were tested.
Cell Growth Assay: Cell Growth was Measured by the SRB Assay.
(The SRB assay estimates cell density from bound dye.)

Results on 29 compounds are retold here after patent US9421211B2, “N,N′-diarylurea compounds and N,N′-diarylthiourea compounds as inhibitors of translation initiation” (President and Fellows of Harvard College, priority 2009, dated 2016).

One may read the fold induction as the ratio of treated to control signal. The IC50 is the concentration needed to halve the response being measured. Consider `FC(F)(F)c1cc(NC(=S)Nc2cc(C(F)(F)F)cc(C(F)(F)F)c2)cc(C(F)(F)F)c1` [Compound 1804], for which, in series [1], the fold induction at 3 µM was determined as 6 and the fold induction at 10 µM amounted to 25. The IC50 in series [2] was 100 nM.
Turning to `Cc1ccc(N(C)C(=O)Nc2cc(C(F)(F)F)cc(C(F)(F)F)c2)cc1O` [BLS13], in series [1], the “Ternary Complex Activity: Maximum effect (Emax, fold over control)” value amounted to 8.5 fold over control and the Cmax was found to be 80 µM.
In the case of `Cc1ccc(NC(=S)Nc2cc(C(F)(F)F)cc(C(F)(F)F)c2)cc1O` [Compound 1803], in series [1], the fold induction at 3 µM was 1 and the fold induction at 10 µM is 12. Moreover, the IC50 in series [2] was 1700 nM.
On to tunicamycin [reference compound], for which, in series [1], the “Effect on firefly/renilla luciferase ratio” value was “increase in the ratio”.
With `S=C(Nc1ccc(Cl)c(Cl)c1)Nc1ccc(Cl)c(Cl)c1` [Compound 1806], in series [1], the fold induction at 3 µM is 2.5 and the fold induction at 10 µM stood at 3.5. The IC50 in series [2] came out at 900 nM.
As for `CC(C)(C)C[CH2][Hg][Cl]` [Compound 146249], in series [1], the “Activity 2.5 uM” value was determined as 2.57 and the “Activity 10 uM” value amounted to 3.25.
Turning to `FC(F)(F)c1cc(NC(=S)Nc2ccc(Cl)cc2)cc(C(F)(F)F)c1` [Compound 1800], in series [1], the fold induction at 3 µM stood at 3 and the fold induction at 10 µM was found to be 4. The IC50 in series [2] was 500 nM.
For the compound `CO[C@@]12[C@H](COC(N)=O)C3=C(C(=O)C(C)=C(N)C3=O)N1C[C@@H]1N[C@@H]12` [mitomycin, reference compound], the “Effect on firefly/renilla luciferase ratio” value in series [1] was “no effect”.
For the compound `N#Cc1ncc(Cl)cc1[N+](=O)[O-]` [Compound 141226], in series [1], the “Activity 2.5 uM” value was found to be 1.02 and the “Activity 10 uM” value is 3.8.
In the case of `COc1cc([C@@H]2c3cc4c(cc3[C@@H](O[C@@H]3O[C@@H]5CO[C@@H](C)O[C@H]5[C@H](O)[C@H]3O)[C@H]3COC(=O)[C@H]23)OCO4)cc(OC)c1O` [etoposite, reference compound], the “Effect on firefly/renilla luciferase ratio” value in series [1] was “no effect”.
As to `FC(F)(F)c1cc(NC(=S)Nc2ccc(Cl)c(Cl)c2)cc(C(F)(F)F)c1` [Compound 1798], in series [1], the fold induction at 3 µM came to 3 and the fold induction at 10 µM is 5. Besides, the IC50 in series [2] stood at 400 nM.
The matching figures for `FC(F)(F)c1cc(NC(=S)Nc2ccc(Cl)c(Cl)c2)ccc1Cl` [Compound 1799]: 4, 4 and 700 nM.
Regarding `COc1ccc(NC(=S)Nc2cc(C(F)(F)F)cc(C(F)(F)F)c2)cc1` [Compound 1816], in series [1], the fold induction at 3 µM is 1 and the fold induction at 10 µM was 2.5. The IC50 in series [2] is 1500 nM.
In the case of `C[C@H](N)C(=O)NCC(=O)N[C@H]1CSSC[C@@H](C(=O)O)NC(=O)[C@H](CO)NC(=O)[C@H]([C@@H](C)O)NC(=O)[C@H](Cc2ccccc2)NC(=O)[C@H]([C@@H](C)O)NC(=O)[C@H](CCCCN)NC(=O)[C@H](Cc2c[nH]c3ccccc23)NC(=O)[C@H](Cc2ccccc2)NC(=O)[C@H](Cc2ccccc2)NC(=O)[C@H](CC(N)=O)NC(=O)[C@H](CCCCN)NC1=O` [Somatostatin], the “Relative F-luc/R-luc Ratio (+/− SEM)” value in series [1] (agent at 20 μM) is on record as 0.9 + 0.2.
For `FC(F)(F)c1cc(NC(=S)Nc2ccc(Cl)cc2)ccc1Cl` [Compound 1801], in series [1], the fold induction at 3 µM was 3 and the fold induction at 10 µM is 3. Further, the IC50 in series [2] amounted to 800 nM.
Consider `FC(F)(F)c1cc(Nc2nncn2-c2cc(C(F)(F)F)cc(C(F)(F)F)c2)cc(C(F)(F)F)c1` [Compound 1836], for which, in series [1], the fold induction at 3 µM was determined as 1 and the fold induction at 10 µM stood at 1. In addition, in series [2], the IC50 stood at 2000 nM.
`COc1cc(N(C)C(=O)Nc2cc(C(F)(F)F)cc(C(F)(F)F)c2)ccc1C` [BLS14]: the “Ternary Complex Activity: Maximum effect (Emax, fold over control)” value in series [1] is reported as “Inactive”.
Regarding `FC(F)(F)c1cc(NC(=S)Nc2ccc(Cl)c(C(F)(F)F)c2)ccc1Cl` [Compound 1778], in series [1], the fold induction at 3 µM was determined as 5 and the fold induction at 10 µM turned out to be 8. The IC50 in series [2] came out at 400 nM.
On the same counts, the results for `CNC(=O)c1cc(Oc2ccc(NC(=S)Nc3ccc(Cl)c(C(F)(F)F)c3)cc2)ccn1` [Compound 1814] are 1.5, 2 and 2000 nM.
Turning to `FC(F)(F)c1cc(NC(=S)Nc2ccccc2)cc(C(F)(F)F)c1` [Compound 1819], in series [1], the fold induction at 3 µM worked out at 1 and the fold induction at 10 µM was 6. The IC50 in series [2] was determined as 1500 nM.
`FC(F)(F)c1ccc(NC(=S)Nc2ccc(Cl)c(Cl)c2)cc1` [Compound 1797]: in series [1], the fold induction at 3 µM amounted to 1 and the fold induction at 10 µM came out at 1. Besides, the IC50 in series [2] was determined as 1200 nM.
In the case of `Cc1ccc(NC(=S)Nc2ccc(Cl)c(C(F)(F)F)c2)cc1O` [Compound 1802], in series [1], the fold induction at 3 µM came to 1.5 and the fold induction at 10 µM was found to be 7. Further, in series [2], the IC50 was 3500 nM.
Consider `COc1ccc(NC(=S)Nc2ccccc2)cc1` [Compound 1815], for which, in series [1], the fold induction at 3 µM was determined as 1 and the fold induction at 10 µM is 1. The IC50 in series [2] is greater than 20000 nM.
Turning to `CC(C)(C)c1ccccc1NC(=S)Nc1cc(C(F)(F)F)cc(C(F)(F)F)c1` [Compound 1821], in series [1], the fold induction at 3 µM came to 1 and the fold induction at 10 µM was found to be 1. Also, the IC50 in series [2] amounted to 4000 nM.
As to `C/C=C(/C)C(=O)O[C@H]1C(C)=C2[C@H]([C@@H]1OC(=O)CCCCCCC)[C@@](C)(OC(C)=O)C[C@H](OC(=O)CCC)[C@@]1(O)[C@H]2OC(=O)[C@@]1(C)O` [thapsigargin, reference compound], the “Effect on firefly/renilla luciferase ratio” value in series [1] is “increase in the ratio”.
Take `CN(C(=O)Nc1cc(C(F)(F)F)cc(C(F)(F)F)c1)c1cc(C(F)(F)F)cc(C(F)(F)F)c1` [BLS17]: in series [1], the “Ternary Complex Activity: Maximum effect (Emax, fold over control)” value turned out to be 13 fold over control and the Cmax was found to be 10 µM.
With `CC(C)c1ccccc1NC(=S)Nc1cc(C(F)(F)F)cc(C(F)(F)F)c1` [Compound 1820], in series [1], the fold induction at 3 µM amounted to 1.5 and the fold induction at 10 µM is 11. For the same compound, the IC50 in series [2] came out at 1500 nM.
In the case of `S=C(Nc1ccc(Cl)cc1)Nc1ccc(Cl)c(Cl)c1` [Compound 1805], in series [1], the fold induction at 3 µM came to 1.4 and the fold induction at 10 µM worked out at 8. In addition, in series [2], the IC50 worked out at 1600 nM.
For `Clc1ccc(Nc2nncn2-c2ccc(Cl)c(Cl)c2)cc1Cl` [Compound 1842], in series [1], the fold induction at 3 µM was 1 and the fold induction at 10 µM came out at 1.
